Test results reported in PubChem BioAssay AID248 (DTP/NCI, 2004).
“And” between values parts separate entries of the source, which are not always exact repeats. Equal entries are not always repeated. Toxic doses and inconclusive results are not listed. Rule as the data show it: active = T/C of 150% or more; inactive = T/C below 125%.

System: L1210 leukemia ip in BDF1 mice, survival T/C
Assay: NCI In Vivo Anticancer Drug Screen. Data for tumor model L1210 Leukemia (intraperitoneal) in B6D2F1 (BDF1) mice
Conditions: endpoint: mean survival time, higher = longer survival
Outline: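 Transplantable tumor model; survival measured in treated vs vehicle control mice. Value = treated/control.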

[1] = dose: 100.0 mg/kg/injection, schedule: Q04DX003 (ip), vehicle: saline
[2] = dose: 200.0 mg/kg/injection, schedule: Q04DX003 (ip), vehicle: saline
[3] = dose: 400.0 mg/kg/injection, schedule: Q04DX003 (ip), vehicle: saline
[4] = dose: 100.0 mg/kg/injection, schedule: Q01DX001 (ip), vehicle: Klucel (hydroxypropylcellulose) (HPC)
[5] = dose: 100.0 mg/kg/injection, schedule: Q04DX003 (ip), vehicle: Klucel (hydroxypropylcellulose) (HPC)
[6] = dose: 200.0 mg/kg/injection, schedule: Q01DX001 (ip), vehicle: Klucel (hydroxypropylcellulose) (HPC)
[7] = dose: 200.0 mg/kg/injection, schedule: Q04DX003 (ip), vehicle: Klucel (hydroxypropylcellulose) (HPC)
[8] = dose: 400.0 mg/kg/injection, schedule: Q01DX001 (ip), vehicle: Klucel (hydroxypropylcellulose) (HPC)
[9] = dose: 400.0 mg/kg/injection, schedule: Q04DX003 (ip), vehicle: Klucel (hydroxypropylcellulose) (HPC)
[10] = dose: 100.0 mg/kg/injection, schedule: Q01DX009 (ip), vehicle: saline
[11] = dose: 100.0 mg/kg/injection, schedule: Q01DX009 (ip), vehicle: Klucel (hydroxypropylcellulose) (HPC)
[12] = dose: 100.0 mg/kg/injection, schedule: Q04DX002 (ip), vehicle: Klucel (hydroxypropylcellulose) (HPC)
[13] = dose: 200.0 mg/kg/injection, schedule: Q01DX009 (ip), vehicle: Klucel (hydroxypropylcellulose) (HPC)
[14] = dose: 200.0 mg/kg/injection, schedule: Q04DX002 (ip), vehicle: Klucel (hydroxypropylcellulose) (HPC)
[15] = dose: 400.0 mg/kg/injection, schedule: Q01DX009 (ip), vehicle: Klucel (hydroxypropylcellulose) (HPC)
[16] = dose: 400.0 mg/kg/injection, schedule: Q04DX002 (ip), vehicle: Klucel (hydroxypropylcellulose) (HPC)
[17] = dose: 100.0 mg/kg/injection, schedule: Q01DX001 (ip), vehicle: carboxymethylcellulose (CMC)
[18] = dose: 200.0 mg/kg/injection, schedule: Q01DX001 (ip), vehicle: carboxymethylcellulose (CMC)
[19] = dose: 400.0 mg/kg/injection, schedule: Q01DX001 (ip), vehicle: carboxymethylcellulose (CMC)
[20] = dose: 12.5 mg/kg/injection, schedule: Q04DX002 (ip), vehicle: Klucel (hydroxypropylcellulose) (HPC)
[21] = dose: 25.0 mg/kg/injection, schedule: Q04DX002 (ip), vehicle: Klucel (hydroxypropylcellulose) (HPC)
[22] = dose: 50.0 mg/kg/injection, schedule: Q04DX002 (ip), vehicle: Klucel (hydroxypropylcellulose) (HPC)
[23] = dose: 400.0 mg/kg/injection, schedule: Q01DX009 (ip), vehicle: saline with Tween-80

Measured: T/C

O=C(c1ccccc1)C1CC1c1ccccc1 (configuration not stated)
inactive: dose: 75.0 mg/kg/injection, schedule: Q01DX001 (ip), vehicle: Klucel (hydroxypropylcellulose) (HPC) 96 % of control | dose: 75.0 mg/kg/injection, schedule: Q04DX002 (ip), vehicle: saline with Tween-80 105 % of control | [1] 101 % of control | dose: 150.0 mg/kg/injection, schedule: Q01DX001 (ip), vehicle: Klucel (hydroxypropylcellulose) (HPC) 100 % of control | dose: 150.0 mg/kg/injection, schedule: Q04DX002 (ip), vehicle: saline with Tween-80 91 % of control | [2] 93 % of control | dose: 300.0 mg/kg/injection, schedule: Q01DX001 (ip), vehicle: Klucel (hydroxypropylcellulose) (HPC) 102 % of control | dose: 300.0 mg/kg/injection, schedule: Q04DX002 (ip), vehicle: saline with Tween-80 98 % of control | [3] 103 % of control

CN(N=O)C(=O)NC(=O)NCCCl
inactive: dose: 4.5 mg/kg/injection, schedule: Q01DX001 (ip), vehicle: carboxymethylcellulose (CMC) 118 % of control | dose: 9.0 mg/kg/injection, schedule: Q01DX001 (ip), vehicle: carboxymethylcellulose (CMC) 115 % of control | dose: 26.0 mg/kg/injection, schedule: Q01DX001 (ip), vehicle: carboxymethylcellulose (CMC) 124 % of control

COC1CCC(NC(=O)NCCCl)CC1 (configuration not stated)
inactive: [4] 95 % of control | [5] 103 % of control | [6] 102 % of control | [7] 97 % of control | [8] 95 % of control | [9] 97 % of control

COC(=O)C(C)CN1CCCCCC1 (configuration not stated)
inactive: [10] 97 % of control | [1] 100 % of control | dose: 200.0 mg/kg/injection, schedule: Q01DX009 (ip), vehicle: saline 104 % of control | [2] 104 % of control | dose: 400.0 mg/kg/injection, schedule: Q01DX009 (ip), vehicle: saline 95 % of control | [3] 102 % of control

COc1cc2c[n+](C)c3c4cc(OC)c(OC)cc4ccc3c2cc1OC
inactive: dose: 9.6 mg/kg/injection, schedule: Q01DX009 (ip), vehicle: saline with Tween-80 119 % of control | dose: 12.5 mg/kg/injection, schedule: Q01DX009 (ip), vehicle: water 111 % of control | dose: 14.0 mg/kg/injection, schedule: Q01DX009 (ip), vehicle: saline with Tween-80 115 % of control | dose: 25.0 mg/kg/injection, schedule: Q01DX009 (ip), vehicle: water 110 % of control and 122 % of control | dose: 50.0 mg/kg/injection, schedule: Q01DX009 (ip), vehicle: water 109 % of control and 114 % of control | [10] 123 % of control | [1] 100 % of control | dose: 100.0 mg/kg/injection, schedule: Q04DX003 (ip), vehicle: water 112 % of control | dose: 180.0 mg/kg/injection, schedule: Q01DX009 (ip), vehicle: saline 109 % of control | [2] 104 % of control | dose: 200.0 mg/kg/injection, schedule: Q04DX003 (ip), vehicle: water 113 % of control | dose: 240.0 mg/kg/injection, schedule: Q04DX003 (ip), vehicle: water 112 % of control | [3] 110 % of control | dose: 400.0 mg/kg/injection, schedule: Q04DX003 (ip), vehicle: water 107 % of control

O=c1[nH]c(SCc2ccccc2[N+](=O)[O-])nc2nc[nH]c12
inactive: [11] 90 % of control | [12] 98 % of control | dose: 100.0 mg/kg/injection, schedule: Q04DX002 (ip), vehicle: saline 94 % of control | [13] 90 % of control | [14] 94 % of control | dose: 200.0 mg/kg/injection, schedule: Q04DX002 (ip), vehicle: saline 97 % of control | [15] 93 % of control | [16] 97 % of control | dose: 400.0 mg/kg/injection, schedule: Q04DX002 (ip), vehicle: saline 97 % of control

CCOC(=O)CCCc1ccc(N=NN(C)C(C)CC)cc1 (configuration not stated)
inactive: [17] 111 % of control | [18] 102 % of control | [19] 107 % of control

O=C(O)CCOc1ccccc1[N+](=O)[O-]
inactive: dose: 37.5 mg/kg/injection, schedule: Q01DX009 (ip), vehicle: saline with Tween-80 91 % of control | dose: 75.0 mg/kg/injection, schedule: Q01DX009 (ip), vehicle: saline with Tween-80 91 % of control | [11] 97 % of control | dose: 150.0 mg/kg/injection, schedule: Q01DX009 (ip), vehicle: saline with Tween-80 88 % of control | [13] 87 % of control | [15] 95 % of control

CC(=O)OC1CCC2(C)C(=CCC3C2CCC2(C)c4c(-c5ccccc5)nn(-c5ccccc5)c4CC32)C1 (configuration not stated)
inactive: [20] 96 % of control | [21] 96 % of control | [22] 101 % of control

CN(C)CCN(C)C(=O)C1C(c2ccccc2)C1c1ccccc1 (configuration not stated)
inactive: [20] 100 % of control | [21] 100 % of control | [22] 87 % of control

C=Cc1c(C)c2cc3[nH]c(cc4nc(cc5nc(cc1[nH]2)C(C)=C5CCC(=O)O)C(CCC(=O)O)=C4C)c(C)c3C=C
inactive: dose: 100.0 mg/kg/injection, schedule: Q04DX003 (ip), vehicle: dextrose 96 % of control | dose: 200.0 mg/kg/injection, schedule: Q04DX003 (ip), vehicle: dextrose 100 % of control | [23] 88 % of control | dose: 400.0 mg/kg/injection, schedule: Q04DX003 (ip), vehicle: dextrose 100 % of control

CNC(=O)Nc1ccccc1[N+](=O)[O-]
inactive: [12] 108 % of control | [14] 97 % of control

CCCC1=NNC(=O)C1
inactive: [17] 100 % of control | [18] 100 % of control | [19] 96 % of control

CC(C)=CCN(CC=C(C)C)CCC(C#N)(c1cccc2ccccc12)C(C)C (configuration not stated)
inactive: dose: 25.0 mg/kg/injection, schedule: Q01DX009 (ip), vehicle: Klucel (hydroxypropylcellulose) (HPC) 101 % of control | [11] 93 % of control

O=C1c2ccccc2C(=O)N1c1ccc([N+](=O)[O-])cc1
inactive: [4] 103 % of control | [6] 97 % of control | [8] 103 % of control

CCCCOC(=O)C1OC1(C)c1ccc(C)cc1 (configuration not stated)
inactive: dose: 100.0 mg/kg/injection, schedule: Q01DX009 (ip), vehicle: saline with Tween-80 103 % of control | dose: 200.0 mg/kg/injection, schedule: Q01DX009 (ip), vehicle: saline with Tween-80 113 % of control | [23] 100 % of control

O=C(c1ccccc1)C1CCCS1(=O)=O (configuration not stated)
inactive: [5] 100 % of control | [13] 98 % of control | [7] 96 % of control | [15] 97 % of control | [9] 100 % of control

c1ccc(-c2nccnc2-c2ccccc2)cc1
inactive: [12] 93 % of control | [14] 107 % of control | [16] 111 % of control
